Test results taken from patent US20230416457A1, “DUAL MODALITY UPS […] TUMOR ACIDOSIS IMAGING” (The Board of Regents of The University of Texas System, priority 2018, published 2023).

Tests used:
macrophages = conditions: cited from earlier work
[1] = system: orthotopic HN5 head and neck tumors; conditions: mouse, in vivo
Procedure: Female NOD-SCID mice (6-8 weeks) were purchased from UT Southwestern Medical Center Breeding Core. For orthotopic head and neck tumors, HN5 and FaDu (2×10^6 per mouse) were injected into the submental triangle area. One week after inoculation, animals with tumor size 20-100 mm^3 were used for imaging studies. Orthotopic murine 4T1 breast tumor model was established in BalB/C mice by injection of 4T1 (5×10^5 per mouse) cells into the mammary fat pads. GFP-transfected 73C murine glioblastoma tumor model was established by implanting 73C glioma cells intracranially in the left hemisphere of mice. Gliomas (2-4 mm in diameter) were formed within two weeks in mice.
For FDG experiments, mice were fasted for 12 h prior to PET imaging. Each mouse received 150 μCi of FDG in 150 μL of saline intravenously via tail vein injection. PET/CT images were acquired one hour post-injection for 15 mins. The mice were sedated on the imaging bed under 2% isoflurane for the duration of imaging. Immediately after the CT data acquisition that was performed at 80 kV and 500 μA with a focal spot of 58 μm, 15-min static PET scans were conducted. […] Reconstructed CT and PET images were fused and analyzed using Inveon Research Workplace (IRW) software. […] The target activity was quantitatively calculated as percentage injected dose per gram of tissue (% ID/g).

[2] = system: LPS-induced tissue inflammation; parameters: species or system C57BL/6 immunocompetent mice; conditions: mouse, in vivo

Q: For ^18F-fluorodeoxyglucose [FDG], which “increase of FDG uptake in macrophages by LPS stimulation” value (macrophages) is on record?
A: 2.5 fold

Q: And the “contrast over noise ratio (CNR), FDG-PET” value [1]?
A: 1.7±0.6

Q: And the “anticipated PET signal in inflamed tissues” value [2]?
A: strong signals
